# Results: ChEMBL document CHEMBL5465560, “Selectivity Literature for EUbOPEN Chemogenomic Library” (2024)
# How the values were obtained:
# [1] = molecular target: Receptor-interacting serine/threonine-protein kinase 2 (Homo sapiens, UniProt O43353); test: Selectivity interaction (KinomeScan (DiscoverX)) EUB0000229b RIPK2; settings: at 10 µM
# [2] = molecular target: Casein kinase I isoform gamma-1 (Homo sapiens) (UniProt Q9HCP0); test: Selectivity interaction (ProQinase) EUB0000171b CSNK1G1
# [3] = molecular target: T1, Cyclin-dependent kinase-like 2 (Homo sapiens) (UniProt Q92772); test: Selectivity interaction (KinomeScan (DiscoverX)) EUB0001079a CDKL2; settings: at 1 µM
# T1 sequence (whole entry): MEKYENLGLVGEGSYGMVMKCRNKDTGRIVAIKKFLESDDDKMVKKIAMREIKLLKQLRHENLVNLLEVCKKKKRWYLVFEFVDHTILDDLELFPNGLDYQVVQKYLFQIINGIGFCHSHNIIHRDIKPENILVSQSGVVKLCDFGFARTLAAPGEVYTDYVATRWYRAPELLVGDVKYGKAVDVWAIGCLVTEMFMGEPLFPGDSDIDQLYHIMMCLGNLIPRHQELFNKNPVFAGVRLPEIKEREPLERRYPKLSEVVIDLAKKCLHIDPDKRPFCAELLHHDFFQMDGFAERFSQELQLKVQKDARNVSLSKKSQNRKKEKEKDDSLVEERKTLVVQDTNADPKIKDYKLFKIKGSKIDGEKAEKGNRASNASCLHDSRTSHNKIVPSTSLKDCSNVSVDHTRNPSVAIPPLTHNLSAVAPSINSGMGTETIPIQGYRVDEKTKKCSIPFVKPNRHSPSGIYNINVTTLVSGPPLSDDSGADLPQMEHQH
# [4] = molecular target: Ephrin type-A receptor 5 (Homo sapiens) (UniProt P54756); test: Selectivity interaction (KinomeScan (DiscoverX)) EUB0001079a EPHA5; settings: at 1 µM
# [5] = molecular target: Myosin light chain kinase 2, skeletal/cardiac muscle (Homo sapiens) (UniProt Q9H1R3); settings: at 10 µM
# [6] = molecular target: T2, Mitogen-activated protein kinase kinase kinase 6 (Homo sapiens) (UniProt O95382); test: Selectivity interaction (ActivX KiNativ screen (kinase selectivity in THP-1 cell lysates)) EUB0000639a MAP3K6; type: subcellular; settings: lysate
# T2 sequence (whole entry): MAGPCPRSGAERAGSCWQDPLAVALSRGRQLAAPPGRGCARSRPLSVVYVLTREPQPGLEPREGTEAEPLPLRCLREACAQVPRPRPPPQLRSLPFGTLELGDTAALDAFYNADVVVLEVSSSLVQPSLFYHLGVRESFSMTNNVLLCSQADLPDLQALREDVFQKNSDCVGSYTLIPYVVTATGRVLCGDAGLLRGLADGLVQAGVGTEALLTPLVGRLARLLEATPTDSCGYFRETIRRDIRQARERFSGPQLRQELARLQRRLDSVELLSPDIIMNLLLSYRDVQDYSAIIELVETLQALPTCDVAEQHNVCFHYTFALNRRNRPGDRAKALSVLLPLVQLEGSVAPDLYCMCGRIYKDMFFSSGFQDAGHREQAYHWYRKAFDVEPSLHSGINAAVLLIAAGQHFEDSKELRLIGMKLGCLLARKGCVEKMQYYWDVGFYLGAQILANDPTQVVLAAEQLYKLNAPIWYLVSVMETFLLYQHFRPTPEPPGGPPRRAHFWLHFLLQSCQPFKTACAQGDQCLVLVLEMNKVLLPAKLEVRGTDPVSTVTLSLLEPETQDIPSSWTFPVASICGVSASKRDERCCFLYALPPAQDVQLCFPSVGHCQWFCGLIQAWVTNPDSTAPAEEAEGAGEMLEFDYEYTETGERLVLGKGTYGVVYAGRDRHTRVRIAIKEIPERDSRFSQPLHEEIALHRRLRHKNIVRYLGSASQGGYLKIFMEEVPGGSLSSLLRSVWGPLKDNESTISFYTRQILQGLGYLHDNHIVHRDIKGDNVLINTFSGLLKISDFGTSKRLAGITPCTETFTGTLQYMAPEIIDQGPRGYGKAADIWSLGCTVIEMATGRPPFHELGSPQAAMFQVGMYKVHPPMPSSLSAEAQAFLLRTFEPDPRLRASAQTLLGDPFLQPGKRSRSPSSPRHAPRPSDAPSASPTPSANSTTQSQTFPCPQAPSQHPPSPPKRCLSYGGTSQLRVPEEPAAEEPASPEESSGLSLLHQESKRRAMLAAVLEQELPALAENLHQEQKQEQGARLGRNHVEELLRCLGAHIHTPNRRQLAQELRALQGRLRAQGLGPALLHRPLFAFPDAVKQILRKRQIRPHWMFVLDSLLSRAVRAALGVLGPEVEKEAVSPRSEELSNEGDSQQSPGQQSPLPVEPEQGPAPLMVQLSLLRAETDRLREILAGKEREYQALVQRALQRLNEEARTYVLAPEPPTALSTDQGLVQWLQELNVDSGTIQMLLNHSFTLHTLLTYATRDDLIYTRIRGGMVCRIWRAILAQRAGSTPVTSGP
# [7] = molecular target: BDNF/NT-3 growth factors receptor (Homo sapiens) (UniProt Q16620); test: Selectivity interaction (KinomeScan (DiscoverX)) EUB0000607a NTRK2; settings: at 10 µM
# BDNF/NT-3 growth factors receptor (Homo sapiens), sequence (Q16620 32-822 limits assumed): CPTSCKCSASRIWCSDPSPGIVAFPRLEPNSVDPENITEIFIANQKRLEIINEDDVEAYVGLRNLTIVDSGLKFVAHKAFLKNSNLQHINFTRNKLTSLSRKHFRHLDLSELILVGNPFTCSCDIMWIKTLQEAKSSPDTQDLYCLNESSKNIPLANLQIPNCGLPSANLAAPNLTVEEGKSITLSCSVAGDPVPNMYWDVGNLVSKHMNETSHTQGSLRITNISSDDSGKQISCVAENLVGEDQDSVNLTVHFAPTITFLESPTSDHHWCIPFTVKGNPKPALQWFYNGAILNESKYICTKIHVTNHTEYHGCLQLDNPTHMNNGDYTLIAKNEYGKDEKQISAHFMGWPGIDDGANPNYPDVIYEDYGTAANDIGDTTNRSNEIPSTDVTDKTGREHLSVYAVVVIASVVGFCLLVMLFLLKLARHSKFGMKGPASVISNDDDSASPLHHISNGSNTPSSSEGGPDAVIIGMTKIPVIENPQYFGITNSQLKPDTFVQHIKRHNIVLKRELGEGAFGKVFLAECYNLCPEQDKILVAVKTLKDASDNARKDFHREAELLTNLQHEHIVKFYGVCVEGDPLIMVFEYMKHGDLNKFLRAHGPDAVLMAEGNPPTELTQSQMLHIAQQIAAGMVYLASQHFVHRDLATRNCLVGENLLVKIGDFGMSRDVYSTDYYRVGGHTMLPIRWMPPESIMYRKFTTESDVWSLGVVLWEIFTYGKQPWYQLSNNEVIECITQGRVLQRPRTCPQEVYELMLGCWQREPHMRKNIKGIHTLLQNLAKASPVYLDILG
# Casein kinase I isoform gamma-1 (Homo sapiens), sequence (Q9HCP0 whole entry, looked up, canonical isoform): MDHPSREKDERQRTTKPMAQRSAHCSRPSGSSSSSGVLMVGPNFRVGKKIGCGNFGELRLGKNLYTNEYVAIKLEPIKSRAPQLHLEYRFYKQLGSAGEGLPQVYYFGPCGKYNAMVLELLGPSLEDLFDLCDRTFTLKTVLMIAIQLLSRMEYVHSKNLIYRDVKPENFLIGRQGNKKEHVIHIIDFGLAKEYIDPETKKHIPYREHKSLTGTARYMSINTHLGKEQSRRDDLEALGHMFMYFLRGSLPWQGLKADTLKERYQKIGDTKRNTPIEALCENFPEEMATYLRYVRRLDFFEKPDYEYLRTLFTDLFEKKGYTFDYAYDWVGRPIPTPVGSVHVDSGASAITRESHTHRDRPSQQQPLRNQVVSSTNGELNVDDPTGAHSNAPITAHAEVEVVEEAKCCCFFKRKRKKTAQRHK
# Ephrin type-A receptor 5 (Homo sapiens), sequence (P54756 whole entry): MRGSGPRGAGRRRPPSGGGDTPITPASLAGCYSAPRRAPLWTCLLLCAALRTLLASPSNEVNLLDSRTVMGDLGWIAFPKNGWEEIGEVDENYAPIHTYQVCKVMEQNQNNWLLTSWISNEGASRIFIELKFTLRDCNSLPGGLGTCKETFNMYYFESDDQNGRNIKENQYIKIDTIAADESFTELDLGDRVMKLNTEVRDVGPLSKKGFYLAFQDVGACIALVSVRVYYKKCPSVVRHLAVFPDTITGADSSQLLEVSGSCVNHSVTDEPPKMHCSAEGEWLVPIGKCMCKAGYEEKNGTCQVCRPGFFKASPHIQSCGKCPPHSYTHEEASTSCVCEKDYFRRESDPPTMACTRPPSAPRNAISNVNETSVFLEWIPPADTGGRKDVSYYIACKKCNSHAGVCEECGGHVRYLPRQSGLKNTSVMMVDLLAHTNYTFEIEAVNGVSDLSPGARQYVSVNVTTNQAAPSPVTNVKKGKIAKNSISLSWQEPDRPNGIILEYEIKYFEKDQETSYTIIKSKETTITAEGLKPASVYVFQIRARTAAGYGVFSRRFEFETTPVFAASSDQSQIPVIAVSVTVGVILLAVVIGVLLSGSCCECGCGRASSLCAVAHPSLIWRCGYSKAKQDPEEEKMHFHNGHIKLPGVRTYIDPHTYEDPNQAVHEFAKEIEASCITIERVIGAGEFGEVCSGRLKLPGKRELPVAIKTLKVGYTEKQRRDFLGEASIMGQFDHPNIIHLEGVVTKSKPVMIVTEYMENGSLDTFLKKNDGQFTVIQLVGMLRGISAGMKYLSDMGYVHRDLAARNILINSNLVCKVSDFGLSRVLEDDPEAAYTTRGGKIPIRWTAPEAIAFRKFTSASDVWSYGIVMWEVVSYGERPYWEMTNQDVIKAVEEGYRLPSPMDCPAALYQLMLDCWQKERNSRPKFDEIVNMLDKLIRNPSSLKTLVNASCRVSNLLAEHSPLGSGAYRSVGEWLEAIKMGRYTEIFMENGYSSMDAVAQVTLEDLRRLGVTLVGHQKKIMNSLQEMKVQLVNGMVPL
# Myosin light chain kinase 2, skeletal/cardiac muscle (Homo sapiens), sequence (Q9H1R3 whole entry): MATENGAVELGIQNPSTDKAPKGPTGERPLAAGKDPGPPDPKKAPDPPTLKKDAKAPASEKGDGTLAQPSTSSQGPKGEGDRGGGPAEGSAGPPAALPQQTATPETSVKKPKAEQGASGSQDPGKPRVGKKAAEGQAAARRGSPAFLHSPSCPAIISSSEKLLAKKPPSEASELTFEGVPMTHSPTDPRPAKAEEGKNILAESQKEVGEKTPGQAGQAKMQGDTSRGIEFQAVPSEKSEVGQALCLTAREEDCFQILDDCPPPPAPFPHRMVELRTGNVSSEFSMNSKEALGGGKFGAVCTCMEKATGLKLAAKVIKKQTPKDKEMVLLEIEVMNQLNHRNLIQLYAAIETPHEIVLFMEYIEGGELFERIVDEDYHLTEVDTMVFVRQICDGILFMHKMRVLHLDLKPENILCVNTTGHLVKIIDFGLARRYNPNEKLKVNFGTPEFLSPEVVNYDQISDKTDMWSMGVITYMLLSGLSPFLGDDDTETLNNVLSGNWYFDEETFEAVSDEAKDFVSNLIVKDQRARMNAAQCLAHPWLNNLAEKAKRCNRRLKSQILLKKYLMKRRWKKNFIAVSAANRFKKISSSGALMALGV
# Receptor-interacting serine/threonine-protein kinase 2, sequence (O43353 whole entry, canonical isoform): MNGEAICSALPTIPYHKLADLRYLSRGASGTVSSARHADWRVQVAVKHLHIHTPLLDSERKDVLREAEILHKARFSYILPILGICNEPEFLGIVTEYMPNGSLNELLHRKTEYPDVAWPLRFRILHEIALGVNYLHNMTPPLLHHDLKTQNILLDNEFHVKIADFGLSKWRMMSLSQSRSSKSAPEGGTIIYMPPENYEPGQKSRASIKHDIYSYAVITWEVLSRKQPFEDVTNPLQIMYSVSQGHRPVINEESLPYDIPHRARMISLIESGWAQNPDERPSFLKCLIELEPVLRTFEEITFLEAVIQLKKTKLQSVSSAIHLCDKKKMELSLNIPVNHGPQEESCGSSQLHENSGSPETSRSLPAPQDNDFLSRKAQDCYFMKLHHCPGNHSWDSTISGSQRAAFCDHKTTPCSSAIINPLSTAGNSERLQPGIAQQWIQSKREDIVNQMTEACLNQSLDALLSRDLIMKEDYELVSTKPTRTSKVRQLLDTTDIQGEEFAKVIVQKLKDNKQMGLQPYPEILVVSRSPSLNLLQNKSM
compound,measurement,setting,value
COc1cc(N(C)c2ccnc3ccc(C(F)(F)F)cc23)cc(OC)c1OC,% binding,[1],58%
C=CC(=O)Nc1cccc(C(=O)Nc2ccc(Nc3cc(-c4[nH]c(SC)nc4C)ccn3)cc2)c1,% of control,[2]; at 1 µM,65%
same,% of control,[2]; at 5 µM,31%
Nc1cnc(N2CCc3cc(S(=O)(=O)Nc4c(F)cc(Cl)cc4F)cc(N4CCCC4=O)c32)nc1 [TP-020n],% of control,[3],85%
same,% of control,[4],100%
Cc1cc([C@@H](C)Nc2ccccc2C(=O)O)c2nc(N3CCOCC3)cc(=O)n2c1 [AZD-6482],% of control,[5],100%
CC[C@@H]1[C@H](F)C(=O)N[C@@H]1COc1nccc2cc(C(N)=O)c(OC)cc12 [ZIMLOVISERTIB],% of inhibition,[6]; at 0.01 µM,-12.1%
same,% of inhibition,[6]; at 0.04 µM,-3.2%
same,% of inhibition,[6]; at 0.2 µM,0%
same,% of inhibition,[6]; at 1 µM,-6.5%
same,% of inhibition,[6]; at 5 µM,-21.9%
CNC(=O)Nc1ccc(-c2nc(N3CC4CCC(C3)O4)c3cnn(C4CCC5(CC4)OCCO5)c3n2)cc1,% of control,[7],100%
